The numbers were not newly measured in patent US5284873A (priority 1991, dated 1994), which cites them from elsewhere.

The data set concerns prostate. The settings on record: treatment of the α-receptors with antagonists.

With `CC(COc1ccccc1)N(CCCl)Cc1ccccc1` (centres unmarked) [phenoxybenzamine], the “improvement in prostate patients” value was “effective improvement”.

Take `COc1cc2nc(N3CCN(C(=O)c4ccco4)CC3)nc(N)c2cc1OC` [prazosin]: the “improvement in prostate patients” value is on record as “effective improvement”.
